# Results as given in PubChem BioAssay (NCI).
# Where “and” joins values, the source holds several entries; their conditions need not be identical. Equal values may be shown once.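 Briefly, cells in 96-well plates were exposed to five compound concentrations for 48 h, and endpoints were estimated by linear interpolation. GI50 marks 50% less growth. TGI: concentration producing complete growth inhibition.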
# Columns and labels:
# Assay in all cases: growth of human tumour cells (NCI), 48 h
# SN12C renal = test system: SN12C renal
# HOP-62 NSCLC = test system: HOP-62 NSCLC
# OVCAR-5 ovarian = test system: OVCAR-5 ovarian
# HT29 colon = test system: HT29 colon
# HOP-92 NSCLC = test system: HOP-92 NSCLC
# KM12 colon = test system: KM12 colon
# OVCAR-8 ovarian = test system: OVCAR-8 ovarian
# DU-145 prostate = test system: DU-145 prostate
# COLO 205 colon = test system: COLO 205 colon
# K-562 leukemia = test system: K-562 leukemia
SMILES,GI50 (SN12C renal),TGI (SN12C renal),GI50 (HOP-62 NSCLC),TGI (HOP-62 NSCLC),GI50 (OVCAR-5 ovarian),TGI (OVCAR-5 ovarian),TGI (HT29 colon),GI50 (HOP-92 NSCLC),TGI (HOP-92 NSCLC),GI50 (KM12 colon),TGI (KM12 colon),GI50 (OVCAR-8 ovarian),TGI (OVCAR-8 ovarian),GI50 (DU-145 prostate),TGI (DU-145 prostate),TGI (COLO 205 colon),TGI (K-562 leukemia),GI50 (COLO 205 colon),GI50 (K-562 leukemia),GI50 (HT29 colon)
C/C(=N\NC(=O)c1ccccc1O)c1cccc(/C(C)=N/NC(=O)c2ccccc2O)n1,0.731 µM,> 100 µM,0.467 µM,31.7 µM and 6.42 µM,10.8 µM and > 95.7 µM,49.5 µM and > 100 µM,> 100 µM,0.908 µM,67.3 µM and 36.8 µM,0.456 µM,> 100 µM,0.571 µM,51.6 µM and > 100 µM,10.7 µM,> 100 µM and 31.3 µM,> 100 µM,> 100 µM,,,
Nc1ncnc2c(C3OC(CO)C(O)C3O)[nH]nc12 (stereo not drawn),0.161 µM,1.68 µM and 1.09 µM,0.123 µM,,0.0727 µM,3.58 µM and 8.57 µM,10.5 µM and 4.62 µM,0.202 µM,,0.076 µM,8.13 µM and 14.3 µM,0.0375 µM and 0.0527 µM,0.624 µM and 0.713 µM,0.0125 µM,0.278 µM,15.7 µM and 11.7 µM,2.03 µM,2.99 µM,0.0459 µM,
Nc1nc(N)c2c(ccc3nccc32)[nH]1,6.91 µM,> 68.6 µM,24.8 µM,> 100 µM,12.4 µM,> 100 µM,> 73.9 µM,4.18 µM,30.6 µM,5.05 µM,27.1 µM,4.62 µM,> 100 µM,8.61 µM,57.4 µM,50.9 µM,> 100 µM,8.03 µM,0.319 µM,1.67 µM
C[C@H]1[C@H](C)CC[C@]2(C(=O)O)CC[C@]3(C)C(=CC[C@@H]4[C@@]5(C)CC[C@H](OC(=O)/C=C/c6ccc(O)cc6)C(C)(C)[C@@H]5CC[C@]43C)[C@H]12,2.15 µM,5.65 µM,3.63 µM,7.03 µM,5.27 µM,12.7 µM,> 100 µM,16.6 µM,37.2 µM,1.09 µM,9.97 µM,2.8 µM,18.3 µM,2.32 µM,13 µM,> 50.3 µM,47.2 µM,4.12 µM,7.14 µM,18.8 µM
COc1cc(Cn2ccc3c2-c2oncc2CC3)cc(OC)c1,6.99 µM,> 100 µM,4.4 µM,> 100 µM,10.1 µM,> 100 µM,> 100 µM,4.25 µM,47 µM,2.02 µM,28.5 µM,4.81 µM,46.7 µM,3.99 µM,> 100 µM,17.3 µM,> 100 µM,3.7 µM,0.594 µM,3.17 µM
CCN(CC)CCCOc1cc(O)c2c(=O)cc(-c3ccccc3)oc2c1,10.1 µM,22.8 µM,5.29 µM,19.4 µM,13 µM,25.7 µM,12.7 µM,3.08 µM,16.7 µM,11.7 µM,33.3 µM,,28.2 µM,10.2 µM,21.8 µM,15.5 µM,3.67 µM,4.21 µM,1.48 µM,2.36 µM
